This is an account of results in patent US7777073B2, “Topical delivery system for antiaging and skin whitening agents” (Bioderm Research, priority 2004, dated 2010).

“Also recorded” adds a separate entry of the source. Read-outs that look alike come from different tables or passages of the source.

Experiment [1] addresses T1, Recombinant human MMP-1 enzyme (Homo sapiens, UniProt P03956).
T1 construct: purchased R&D Systems
T1 sequence (P03956 100-469): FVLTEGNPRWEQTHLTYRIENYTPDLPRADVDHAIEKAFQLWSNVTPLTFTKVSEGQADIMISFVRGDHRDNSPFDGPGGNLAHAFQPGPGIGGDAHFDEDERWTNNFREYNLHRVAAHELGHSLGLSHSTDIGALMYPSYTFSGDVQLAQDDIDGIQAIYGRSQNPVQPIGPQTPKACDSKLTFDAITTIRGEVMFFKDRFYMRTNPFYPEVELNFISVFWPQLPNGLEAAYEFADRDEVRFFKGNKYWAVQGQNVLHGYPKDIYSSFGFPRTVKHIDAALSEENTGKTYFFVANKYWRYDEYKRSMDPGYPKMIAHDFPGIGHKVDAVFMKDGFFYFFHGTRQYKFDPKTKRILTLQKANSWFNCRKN
In words: In vitro inhibition of MMP-1. In kind it is biochemical. The settings on record: enzyme activated with APMA, read-out: 50% Inhibition Concentration MMP-1 (converted). The source says: (§1) In vitro specific inhibition of MMP-2 and MMP-9 activity by [R]-(N-[(2,4-dihydroxyphenyl)ethyl]glycine and [S]-N-[(2,4-dihydroxyphenyl)ethyl]glycine was estimated with assay kits from Biomol Corporation. Recombinant human MMP-1 enzyme was obtained from R&D Systems. The enzyme was first activated with APMA according to the protocol provided by R&D Systems. The experimental conditions for the screening of MMP-1 inhibitors were similar to the settings used for MMP-2 and MMP-9 testing.
(§2) In vitro inhibition of MMP1, 2 and 9 for several samples (mcg=micro-grams).

Experiment [2] addresses T2, MMP-2 (Homo sapiens, UniProt P08253).
T2 construct: purchased Biomol Corporation
The experiment in a line: In vitro inhibition of MMP-2 (Biomol assay kit). It counts as biochemical. The settings on record: read-out: 50% Inhibition Concentration MMP-2 (converted).
From the text: as §1, §2

Experiment [3] deals with T3, MMP-9 (Homo sapiens, UniProt P14780).
T3 construct: purchased Biomol Corporation
T3 sequence (P14780 107-444 limits assumed, species assumed): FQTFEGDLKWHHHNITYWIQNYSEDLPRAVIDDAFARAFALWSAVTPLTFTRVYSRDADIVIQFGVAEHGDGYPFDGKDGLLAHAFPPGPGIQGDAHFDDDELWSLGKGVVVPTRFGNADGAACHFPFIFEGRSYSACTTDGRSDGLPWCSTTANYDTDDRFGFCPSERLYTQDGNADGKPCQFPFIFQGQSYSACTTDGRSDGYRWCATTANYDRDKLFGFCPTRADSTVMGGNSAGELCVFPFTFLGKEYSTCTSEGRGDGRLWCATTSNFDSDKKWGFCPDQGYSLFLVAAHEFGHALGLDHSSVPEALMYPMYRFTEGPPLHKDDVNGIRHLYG
In words: In vitro inhibition of MMP-9 (Biomol assay kit). The following applies: read-out: 50% Inhibition Concentration MMP-9 (converted). In kind it is biochemical.
From the text: as §1, §2

Experiment [4] concerns mushroom tyrosinase. The experiment in a line: Inhibition of tyrosinase, kinetic analysis. It counts as biochemical. The following applies: for IC50: 20 C, phosphate buffer 100 mM, pH 6.8, read-out: Tyrosinase Inhibitory Concentration. On the procedure:
Method. Kinetic analysis of 2,4 DHA inhibition.
All reactions were performed at 20 C, in phosphate buffer 100 mM, pH 6.8, mushroom tyrosinase.

The test system of experiment [5] is Matrix metalloproteases. In words: In vitro inhibition of Matrix metalloproteases, overall assessment. It counts as biochemical.
From the text: as §1

The test system of experiment [6] is skin. In words: Differences in antiaging and skin whitening affect of [S] and [R] isomers.

T2 sequence (P08253 110-452 limits assumed, species assumed): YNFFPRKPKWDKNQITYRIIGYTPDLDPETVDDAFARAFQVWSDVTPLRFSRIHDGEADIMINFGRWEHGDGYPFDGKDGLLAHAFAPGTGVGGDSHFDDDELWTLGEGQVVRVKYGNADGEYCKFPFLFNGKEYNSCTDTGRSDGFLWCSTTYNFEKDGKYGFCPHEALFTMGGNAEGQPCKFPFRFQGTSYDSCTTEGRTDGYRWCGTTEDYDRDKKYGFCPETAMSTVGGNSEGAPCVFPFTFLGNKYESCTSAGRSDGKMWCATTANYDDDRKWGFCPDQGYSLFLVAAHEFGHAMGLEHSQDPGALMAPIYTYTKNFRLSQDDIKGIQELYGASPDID

With `C[C@H](NCC(=O)O)c1ccc(O)cc1O` [[S]-N-[(2,4-dihydroxyphenyl)ethyl]glycine], the IC50 was 166 µM in experiment [1], 189 µM in experiment [2], 284 µM in experiment [3] and 10000 µM in experiment [4]. The “Tyrosinase inhibition (in words)” value in experiment [4] was “anti-tyrosinase activity; also recorded: excellent inhibitor”. Further, the “MMP inhibition (in words)” value in experiment [5] (MMP1, 2 and 9) is listed as “MMP inhibition; also recorded: just a bit weaker, but still quite acceptable”. Moreover, the “Antiwrinkle properties, [S] versus [R] isomer” value in experiment [6] is on record as “better antiwrinkle properties”.
Consider `OC[C@H]1O[C@@H](Oc2ccc(O)cc2)[C@H](O)[C@@H](O)[C@@H]1O` [Arbutin, reference compound], for which the IC50 in experiment [4] worked out at 25000 µM.
Consider `C[C@@H](NCC(=O)O)c1ccc(O)cc1O`, for which the IC50 is 94.7 µM in experiment [1], 71 µM in experiment [2], 94.7 µM in experiment [3] and 5000 µM in experiment [4]. Besides, the “Tyrosinase inhibition (in words)” value was “excellent inhibitor” in experiment [4] and “anti-tyrosinase activity” in experiment [4] (listed as [R]-(N-[(2,4-dihydroxyphenyl)ethyl]glycine)). Further, the “MMP inhibition (in words)” value is “very good and general inhibition” in experiment [5] (MMP1, 2 and 9); “MMP inhibition” in experiment [5] (MMP1, 2 and 9, listed as [R]-(N-[(2,4-dihydroxyphenyl)ethyl]glycine)). Also, the “Skin whitening benefits, [R] versus [S] isomer” value in experiment [6] is on record as “better skin whitening benefits”.
